Data reported in ChEMBL document CHEMBL3045277, “Synthesis and biological activity of novel 1H-1,4-diazepines containing benzene sulfonyl piperazine moiety” (2011).

Columns and labels:
Assay type in all cases: functional
Aspergillus niger = test: Antifungal activity against Aspergillus niger by cup-plate method
Candida albicans = test: Antifungal activity against Candida albicans by cup-plate method
Metaphire posthuma [1] = test: Antihelminthic activity against Metaphire posthuma assessed as time of occurrence of death
Klebsiella pneumoniae = test: Antibacterial activity against Klebsiella pneumoniae by cup-plate method
Staphylococcus aureus = test: Antibacterial activity against Staphylococcus aureus by cup-plate method
Metaphire posthuma [2] = test: Antihelminthic activity against Metaphire posthuma assessed as time of occurrence of paralysis

Structure (SMILES)	inhibition zone (IZ) (Aspergillus niger) [mm]	inhibition zone (IZ) (Candida albicans) [mm]	Time (Metaphire posthuma [1]) [min]	inhibition zone (IZ) (Klebsiella pneumoniae) [mm]	inhibition zone (IZ) (Staphylococcus aureus) [mm]	Time (Metaphire posthuma [2]) [min]
Cc1cc(C2CCCCC2)n(O)c(=O)c1.NCCO [CICLOPIROX OLAMINE]	22	24	–	–	–	–
CC(=O)Nc1ccc(S(=O)(=O)N2CCN(CCCC3C(=O)NCCNC3=O)CC2)cc1	15	13	122	15	13	103
O=C(O)c1cn(C2CC2)c2cc(N3CCNCC3)c(F)cc2c1=O [CIPROFLOXACIN]	–	–	–	26	24	–
CC(=O)Nc1ccc(S(=O)(=O)N2CCN(CCCC3C(=O)NCCN=C3C)CC2)cc1 (stereo unspecified)	17	16	119	17	16	102
CC(=O)Nc1ccc(S(=O)(=O)N2CCN(CCCC3C(C)=NCCN=C3c3ccccc3)CC2)cc1 (stereo unspecified)	20	20	111	19	20	91
C1CNCCN1.C1CNCCN1.C1CNCCN1.O.O=C(O)CC(O)(CC(=O)O)C(=O)O.O=C(O)CC(O)(CC(=O)O)C(=O)O [PIPERAZINE CITRATE]	–	–	125	–	–	100
CC(=O)Nc1ccc(S(=O)(=O)N2CCN(CCCC3C(C)=NCCN=C3C)CC2)cc1	19	21	103	21	19	92
CC(=O)Nc1ccc(S(=O)(=O)N2CCN(CCCC3C(c4ccccc4)=NCCN=C3c3ccccc3)CC2)cc1	18	19	110	19	17	93
